Measured values reported in patent US11306117B2, “Whitening composition containing novel quercetin-based compound” (AMOREPACIFIC CORPORATION, priority 2017, dated 2022).

Key:
mushroom tyrosinase = assay: Inhibition of tyrosinase activity; assay type: biochemical; conditions: L-tyrosine, 37° C., 20 minutes, absorbance 490 nm
Method: The effect of New Materials 31 and 32 on inhibiting tyrosinase activity was evaluated.
Specifically, tyrosinase and tyrosine derived from mushroom were obtained from Sigma Chemical. Together with 150 μl of 0.1 M phosphate buffer (pH 6.5), 8 μl of mushroom tyrosinase (2,100 unit/ml) and 0.05 M concentration of L-tyrosine, arbutin and New Materials 31 and 32 were treated at the concentrations of following Table 3, respectively. The tyrosinase activity was evaluated by performing the enzyme reaction at 37° C. for 20 minutes and then measuring absorbance at 490 nm using a microplate reader (Bio-Rad 3550, Richmond, Calif., U.S.A.).

Mel-Ab cell line = assay: Inhibition of melanogenesis in Mel-Ab cells (method of Dooley); assay type: cell-based, C57BL/6; conditions: melanin by absorbance at 400 nm after 5 days
Method: The effects of New Materials 31 and 32 on inhibiting melanogenesis were compared with Kojic acids which have been known to have an excellent skin whitening effect, and measured.
Specifically, the degree of melanogenesis in cells was measured by a method of Dooley. As the cell line, Mel-Ab cell line (Falcon, U.S.A.) derived from a skin pigment of C57BL/6 was used. Culturing was made under the condition of 37° C., 5% CO2 of a DMEM medium containing 10% placenta serum, 100 nM 12-O-tetradecanoylphorbol-13-acetate, and 1 nM Cholera Toxin. The test materials were treated in the manner where the cultured Mel-Ab cell was isolated with 0.25% trypsin-EDTA, and inoculated again with the same number (1×10^5 cells/well) in the 24-well plate, and then the medium was replaced with a medium containing the test materials for two days from the second day. As the test materials, 5 ppm, 10 ppm, 25 ppm and 50 ppm of New Materials 31 and 32, 25 ppm, 50 ppm and 100 ppm of Kojic acids and DMSO (control) were used. After 5 days, the test materials were treated with 1N-NaOH to dissolve melanin contained in the cell, and the amount of melanin was measured by measuring absorbance at 400 nm. The concentration (IC50) of the material necessary for reducing melanogenesis of melanocyte by half was calculated, and the results are shown in following Table 4.

Row | SMILES | IC50 inhibiting tyrosinase activity (mushroom tyrosinase) [ppm] | IC50 inhibiting melanogenesis (Mel-Ab cell line) [ppm]
1 | C[C@@H]1O[C@@H](OC[C@H]2O[C@@H](Oc3c(-c4ccc(O)c(O)c4)oc4cc(O)cc(O)c4c3=O)[C@H](O)[C@@H](OC(=O)/C=C/c3ccc(O)cc3)[C@@H]2O)[C@H](O)[C@H](O[C@@H]2O[C@H](CO)[C@@H](O)[C@H](O)[C@H]2O)[C@H]1O [New Material 31, quercetin3-O-[3-O″-(E)-p-coumaroyl][β-D-glucopyranosyl-(1→3)-O-α-L-rhamnopyranosyl-(1→6)-O-β-D-glucopyranoside]] | 16 | 23.5
2 | C[C@@H]1O[C@@H](OC[C@H]2O[C@@H](Oc3c(-c4ccc(O)c(O)c4)oc4cc(O)cc(O)c4c3=O)[C@H](O)[C@@H](OC(=O)/C=C/c3ccc(O)cc3)[C@@H]2O)[C@H](O)[C@H](O)[C@H]1O [New Material 32, quercetin3-O-[3-O″-(E)-p-coumaroyl][α-L-rhamnopyranosyl-(1→6)-O-β-D-glucopyranoside]] | 19 | 23.5
